Values of other authors as cited in patent publication US7501136B2, “Deodorant composition” (Kao Corporation, priority 2003, dated 2009).

Tested on: Staphylococcus aureus
Conditions: against Staphylococcus aureus

## Cc1cc(O)ccc1C(C)C [isopropyl methylphenol]
  MIC (Minimum Inhibitory Concentration): 0.015%
